# Experimental data taken from patent US9265766B2, “Methods for altering mRNA splicing and treating familial dysautonomia by administering benzyladenine” (The General Hospital Corporation, priority 2003, dated 2016).
# Entries after “also recorded” stand apart in the source; their conditions may differ. Read-outs that look alike come from different tables or passages of the source.
# Assays:
# [1] = tested on: IKBKAP splicing (WT:MU IKBKAP mRNA); experiment: WT:MU IKBKAP mRNA ratio by RT-PCR (IDV) in FD lymphoblast cell lines; drug screen; format: cell-based, human; conditions: for correct IKBKAP splicing / production of wild-type IKBKAP transcript in FD cells: 10 μM compound in DMSO, 72 hours, FD lymphoblast cell line
# Procedure: Drug Screen. The panel of 1040 independent compounds used was specifically designed for the NINDS sponsored Neurodegeneration Drug Screening Consortium (MicroSource Discovery Systems). A single FD lymphoblast cell line was cultured in 24 well format and treated with 10 μM compound dissolved in DMSO for 72 hours. RNA was extracted using Tri-Reagent™ (Molecular Research Center) and reverse transcription and IKBKAP PCR was performed as previously described^4.
# An assay that provides stable and consistent measurement of the ratio of WT:MU FD IKBKAP mRNA splice products in lymphoblast cell lines was developed^4. This assay was employed as part of the Neurodegeneration Drug Screening Consortium′ to identify compounds that increase the relative production of WT mRNA. A single, standard FD lymphoblast cell line was assayed after 72 hours in the presence of 10 μM test drug, using compounds dissolved in DMSO.
# [2] = tested on: rat liver and kidney tissue; conditions: in vivo, po; cited from earlier work
# MYO5A exon 31 splicing = conditions: reference 13; cited from earlier work
# SMN2 exon 7 = conditions: cited from earlier work
# [3] = tested on: IKBKAP WT:MU transcript ratio; experiment: IKBKAP nonsense mediated decay analysis (cycloheximide) in FD lymphoblast cell lines; format: cell-based, human; conditions: 50 μg/ml cycloheximide, four hours, FD cells
# Procedure: RT-PCR amplification and fractionation of the amplified product on a 1.5% agarose gel was performed on cell extracts. WT:MU IKBKAP transcript ratios were determined using the integrated density value (IDV) obtained for each band and are shown beneath each lane. Primer sequences and PCR conditions have been previously described^4
# Cell Culture and Treatment.
# The IVS20^+6T→C mutation in IKBKAP leads to a frameshift and a premature termination codon in exon 21, which is expected to target the mutant transcript for decay via the nonsense-mediated mRNA decay (NMD) pathway^15. […] FD cells were exposed to cycloheximide, a translation inhibitor, to inhibit NMD of the mutant transcript^16.
# [4] = tested on: IKBKAP mRNA (WT, MU, total); experiment: Real-time quantitative PCR of IKBKAP transcripts in FD lymphoblast cells; format: cell-based, human; conditions: doses higher than 50 μM (data not shown)
# IKAP protein = experiment: Western blot of IKAP protein in FD lymphoblast cell lines; format: cell-based, human; conditions: increasing concentrations of kinetin, 72 hours, FD lymphoblast cells
# Source text: Western Blot Analysis. […] Extracted protein was run on a 6% polyacrylamide gel. The samples were transferred to nitrocellulose and stained with Ponceau-S to visualize protein loading. IKAP was detected using a monoclonal antibody raised against amino acids 796-1008 of IKAP (BD Bioscience) that detects the 150 kD full-length IKAP protein. The same blot was probed with an antibody to insulin-degrading enzyme (IDE) as a protein loading control. Bands were quantitated using an Alpha 2000™ Image Analyzer.
# FD lymphoblast cells = experiment: Cellular toxicity in FD lymphoblast cells; format: cell-based, human; conditions: 400 μM
# Procedure: By contrast, total IKBKAP mRNA was relatively unaffected, with a slight increase (˜1.5 fold) being detected only at doses higher than 50 μM (data not shown).
# [5] = tested on: FD (MU) IKBKAP minigene exon 20; experiment: IKBKAP minigene splicing assay, FD (MU) construct in HEK293 cells; format: cell-based, human; conditions: RT-PCR with T7 and BGH-R
# Procedure: (§1) In Vivo IKBKAP Minigene Splicing Assay. IKBKAP genomic DNA was amplified from an unaffected and an FD individual using primers in exon 19 and 21: EX19F-5′-[…] (SEQ ID NO:6) and EX21R-5′-[…] (SEQ ID NO:7). The amplified products were cloned into pcDNA3.1/V5-His Topo (Invitrogen) and sequenced for verification. […] Minigene constructs were transiently transfected 12 hours later using Genejuice (Novagen) as directed by the manufacturer. After 48 hours RNA was isolated using the RNAeasy kit (Qiagen) and reverse transcribed using Superscript™ II reverse transcriptase (Invitrogen) as described^4. PCR was performed using vector specific primers: T7 ([…]) (SEQ ID NO:8) and BGHR ([…]) (SEQ ID NO:9), which amplify both WT and MU transcripts, or the MU specific primer EX19/21F ([…]) (SEQ ID NO:10) and BGH-R to specifically amplify only MU transcripts. PCR was performed as follows: 26 cycles of [94° C., 30 s; 56° C., 30 s; 72° C., 30 s] and products resolved on a 1.5% agarose gel and visualized by ethidium bromide staining.
# (§2) These constructs were transfected into HEK293 cells and RNA was amplified using vector-specific primers to avoid amplification of the endogenous IKBKAP message. […] Introduction of the FD mutation into the construct increased exon 20 skipping as predicted.
# [6] = tested on: WT IKBKAP minigene exon 20; experiment: IKBKAP minigene splicing assay, WT construct in HEK293 cells; format: cell-based, human; conditions: for inclusion of exon 20, WT minigene construct: RT-PCR with T7 and BGH-R
# Procedure: as §1, §2
# [7] = tested on: NF1 minigene (exons 35 to 37, C>T at 6724); experiment: NF1 minigene splicing assay in HEK293 cells; format: cell-based, human; conditions: HEK293 cells transfected with NF1 minigene, with vs without kinetin
# Procedure: NF1 genomic DNA was amplified from an unaffected and an NF1 individual using primers at the 5′ end of exon 35 and the 3′ end of exon 37. […] The amplified products were cloned into pcDNA3.1/V5-His Topo (Invitrogen) and sequenced for verification. […] Minigene constructs were transiently transfected 12 hours later using Genejuice (Novagen) as directed by the manufacturer. After 48 hours RNA was isolated using the RNAeasy kit (Qiagen) and reverse transcribed using Superscript™ II reverse transcriptase (Invitrogen) as described^4. PCR was performed using vector specific primers: T7 ([…]) (SEQ ID NO:8) and BGHR ([…]) (SEQ ID NO:9), which amplify both WT and MU transcripts. PCR was performed as follows: 30 cycles of [94° C., 30 s; 58° C., 30 s; 72° C., 30 s] and products resolved on a 1.5% agarose gel and visualized by ethidium bromide staining.
# human skin fibroblasts = conditions: cultured human skin fibroblasts; cited from earlier work
compound,measurement,setting,value
"CC(C)=CCNc1ncnc2nc[nH]c12 [2iP, 6-(γ,γ-dimethyallylamino)purine, reference compound]",effect on WT:MU IKBKAP ratio,"[1]; FD lymphoblast assay, tested at 1, 10, 50 and 100 μM",neither zeatin nor 2iP (dissolved in DMSO at 10 mM) had any effect
"O=C(O)Cc1c[nH]c2ccccc12 [IAA, indoleacetic acid, reference compound]",lipid peroxidation in liver and kidney tissue,[2],resulting in lipid peroxidation synthesis
"CC[C@@]1(O)C[C@H](O[C@H]2C[C@H](N(C)C)[C@H](O[C@H]3C[C@H](O)[C@H](O[C@H]4CCC(=O)[C@H](C)O4)[C@H](C)O3)[C@H](C)O2)c2c(cc3c(c2O)C(=O)c2c(O)cccc2C3=O)[C@H]1C(=O)OC [aclarubicin, reference compound]",correct IKBKAP splicing / production of wild-type IKBKAP transcript in FD cells,[1],no effect on IKBKAP splicing
same,inclusion of alternatively spliced exons in MYO5A (literature),MYO5A exon 31 splicing,neither of these drugs promotes inclusion
same,effect on exon 7 of SMN2,SMN2 exon 7,can promote the inclusion of exon 7
"c1ccc(CNc2ncnc3nc[nH]c23)cc1 [benzyladenine, 6-benzylaminopurine]",enhancement of inclusion of exon 20 in IKBKAP transcripts,"[1]; by 100 μM, FD lymphoblast assay",approximately 2 fold
C[C@@H]1C[C@@H]([C@H](O)CC2CC(=O)NC(=O)C2)C(=O)[C@@H](C)C1 [cycloheximide],"WT:MU IKBKAP transcript ratio, cycloheximide alone",[3],decreasing the WT:MU transcript ratio
"c1coc(CNc2ncnc3nc[nH]c23)c1 [kinetin, 6-furfurylaminopurine]",correct IKBKAP splicing / production of wild-type IKBKAP transcript in FD cells,[1],dramatically enhanced correct splicing
same,correct IKBKAP splicing / production of wild-type IKBKAP transcript in FD cells,[1]; listed as Kinetin,significantly increases production of wild-type IKBKAP transcript
same,MU IKBKAP band by densitometry,"[1]; 100 μM kinetin, RT-PCR gel",barely discernable
same,increase in total IKBKAP mRNA,[4],~1.5 fold
same,IKAP protein production,IKAP protein,increase in production of IKAP protein
same,cellular toxicity,FD lymphoblast cells,some cellular toxicity
same,"inclusion of exon 20, FD (MU) minigene construct",[5],enhanced inclusion of exon 20
same,"inclusion of exon 20, FD (MU) minigene construct",[5]; listed as Kinetin,enhances inclusion of exon 20
same,exon 20 skipping in WT construct transcripts (MU-specific PCR),[6]; MU-specific primer EX19/21F,completely corrected; also recorded: absence of MU transcript in the WT lane
same,"inclusion of exon 20, WT minigene construct",[6],enhanced inclusion of exon 20
same,"inclusion of exon 20, WT minigene construct",[6]; listed as Kinetin,enhances inclusion of exon 20
same,splicing of NF1 minigene,[7],altered splicing
same,effect on exon 7 of SMN2,SMN2 exon 7,no effect on skipping of exon 7
same,cellular changes associated with in vitro aging of human skin cells,human skin fibroblasts,delay or prevent a range of cellular changes
same,maximum in vitro life span of human skin cells,human skin fibroblasts,did not alter
same,toxicity when administered orally to rats,[2],much less toxicity as compared to indoleacetic acid
"CC(=CCNc1ncnc2nc[nH]c12)CO [zeatin, 6-(4-hydroxy-3-methylbut-2-enylamino)purine, reference compound]",effect on WT:MU IKBKAP ratio,[1],neither zeatin nor 2iP (dissolved in DMSO at 10 mM) had any effect
